From patent publication US7282496B2, “Allenic aryl sulfonamide hydroxamic acids as matrix metalloproteinase and TACE inhibitors” (Wyeth Holdings Corporation, priority 2001, dated 2007)

Columns and labels:
Assay type in all cases: biochemical
MMP-1 = molecular target: T1, MMP-1 (Homo sapiens, UniProt P03956); assay: MMP-1 inhibition, thiopeptide or fluorescent peptide substrate test procedure; conditions: for IC50: in vitro enzyme inhibition
T1 sequence (P03956 100-469): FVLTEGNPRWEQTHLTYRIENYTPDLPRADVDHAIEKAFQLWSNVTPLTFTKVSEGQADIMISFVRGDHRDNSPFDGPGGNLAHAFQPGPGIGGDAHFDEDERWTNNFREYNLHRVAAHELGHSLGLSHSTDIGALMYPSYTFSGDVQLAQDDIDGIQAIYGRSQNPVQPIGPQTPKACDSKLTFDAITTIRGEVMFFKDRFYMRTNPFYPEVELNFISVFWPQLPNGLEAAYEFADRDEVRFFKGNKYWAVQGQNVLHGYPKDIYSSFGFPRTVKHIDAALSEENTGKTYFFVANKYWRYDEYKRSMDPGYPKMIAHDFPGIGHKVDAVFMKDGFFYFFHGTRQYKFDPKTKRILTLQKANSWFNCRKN
Description: (§1) Test Procedures for Measuring MMP-1, MMP-9, and MMP-13 Inhibition
(§2) These standard pharmacological test procedures are based on the cleavage of a thiopeptide substrates such as Ac-Pro-Leu-Gly(2-mercapto-4-methyl-pentanoyl)-Leu-Gly-OEt by the matrix metalloproteinases MMP-1, MMP-13 (collagenases) or MMP-9 (gelatinase), which results in the release of a substrate product that reacts calorimetrically with DTNB (5,5′-dithiobis(2-nitro-benzoic acid)). The enzyme activity is measured by the rate of the color increase. The thiopeptide substrate is made up fresh as a 20 mM stock in 100% DMSO and the DTNB is dissolved in 100% DMSO as a 100 mM stock and stored in the dark at room temperature. Both the substrate and DTNB are diluted together to 1 mM with substrate buffer (50 mM HEPES pH 7.5, 5 mM CaCl2) before use. The stock of enzyme is diluted with buffer (50 mM HEPES, pH 7.5, 5 mM CaCl2, 0.02% Brij) to the desired final concentration. The buffer, enzyme, vehicle or inhibitor, and DTNB/substrate are added in this order to a 96 well plate (total reaction volume of 200 μl) and the increase in color is monitored spectrophotometrically for 5 minutes at 405 nm on a plate reader and the increase in color over time is plotted as a linear line.
(§3) Alternatively, a fluorescent peptide substrate is used. In this test procedure, the peptide substrate contains a fluorescent group and a quenching group. Upon cleavage of the substrate by an MMP, the fluorescence that is generated is quantitated on the fluorescence plate reader. The assay is run in HCBC assay buffer (50 mM HEPES, pH 7.0, 5 mM Ca^+2, 0.02% Brij, 0.5% Cysteine), with human recombinant MMP-1, MMP-9, or MMP-13. The substrate is dissolved in methanol and stored frozen in 1 mM aliquots. For the assay, substrate and enzymes are diluted in HCBC buffer to the desired concentrations. Compounds are added to the 96 well plate containing enzyme and the reaction is started by the addition of substrate. The reaction is read (excitation 340 nm, emission 444 nm) for 10 min. and the increase in fluorescence over time is plotted as a linear line.
(§4) For either the thiopeptide or fluorescent peptide test procedures, the slope of the line is calculated and represents the reaction rate. The linearity of the reaction rate is confirmed (r^2>0.85). The mean (x±sem) of the control rate is calculated and compared for statistical significance (p<0.05) with drug-treated rates using Dunnett's multiple comparison test. Dose-response relationships can be generated using multiple doses of drug and IC50 values with 95% Cl are estimated using linear regression.

MMP-13 = MMP-13 (Homo sapiens, UniProt P45452); assay: MMP-13 inhibition, thiopeptide or fluorescent peptide substrate test procedure; conditions: in vitro enzyme inhibition
Description: as §1, §2, §3, §4

[1] = molecular target: TNF-α converting enzyme (TACE) (Homo sapiens, UniProt P78536); assay: TACE inhibition, fluorescent peptidyl substrate test procedure; conditions: in vitro enzyme inhibition
Sequence of TNF-α converting enzyme (TACE) (P78536 215-824, species assumed): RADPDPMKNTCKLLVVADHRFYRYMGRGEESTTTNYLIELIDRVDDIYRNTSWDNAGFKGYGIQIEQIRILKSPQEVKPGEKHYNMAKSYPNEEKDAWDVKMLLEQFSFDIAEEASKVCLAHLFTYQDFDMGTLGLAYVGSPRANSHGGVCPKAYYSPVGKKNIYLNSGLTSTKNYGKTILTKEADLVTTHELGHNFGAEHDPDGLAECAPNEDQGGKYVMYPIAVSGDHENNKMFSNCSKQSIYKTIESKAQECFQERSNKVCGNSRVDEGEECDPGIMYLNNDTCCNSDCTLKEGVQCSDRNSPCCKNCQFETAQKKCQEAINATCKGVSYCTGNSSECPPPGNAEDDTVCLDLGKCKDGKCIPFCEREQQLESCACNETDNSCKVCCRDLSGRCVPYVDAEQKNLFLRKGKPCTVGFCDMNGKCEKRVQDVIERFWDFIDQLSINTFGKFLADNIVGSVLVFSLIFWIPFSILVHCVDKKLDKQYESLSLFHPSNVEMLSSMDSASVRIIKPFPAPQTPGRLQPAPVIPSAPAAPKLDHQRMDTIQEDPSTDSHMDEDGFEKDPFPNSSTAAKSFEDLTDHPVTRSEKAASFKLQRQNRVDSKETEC
Description: Test Procedure for Measuring TACE Inhibition
Using 96-well black microtiter plates, each well receives a solution composed of 10 μL TACE (final concentration 1 μg/mL), 70 μL Tris buffer, pH 7.4 containing 10% glycerol (final concentration 10 mM), and 10 μL of test compound solution in DMSO (final concentration 1 μM, DMSO concentration <1%) and incubated for 10 minutes at room temperature. The reaction is initiated by addition of a fluorescent peptidyl substrate (final concentration 100 μM) to each well and then shaking on a shaker for 5 sec.
The reaction is read (excitation 340 nm, emission 420 nm) for 10 min. and the increase in fluorescence over time is plotted as a linear line. The slope of the line is calculated and represents the reaction rate.
The mean (x±sem) of the control rate is calculated and compared for statistical significance (p<0.05) with drug-treated rates using Dunnett's multiple comparison test.

MMP-9 = MMP-9 (Homo sapiens, UniProt P14780); assay: MMP-9 inhibition, thiopeptide or fluorescent peptide substrate test procedure; conditions: in vitro enzyme inhibition
Sequence of MMP-9 (P14780 94-707): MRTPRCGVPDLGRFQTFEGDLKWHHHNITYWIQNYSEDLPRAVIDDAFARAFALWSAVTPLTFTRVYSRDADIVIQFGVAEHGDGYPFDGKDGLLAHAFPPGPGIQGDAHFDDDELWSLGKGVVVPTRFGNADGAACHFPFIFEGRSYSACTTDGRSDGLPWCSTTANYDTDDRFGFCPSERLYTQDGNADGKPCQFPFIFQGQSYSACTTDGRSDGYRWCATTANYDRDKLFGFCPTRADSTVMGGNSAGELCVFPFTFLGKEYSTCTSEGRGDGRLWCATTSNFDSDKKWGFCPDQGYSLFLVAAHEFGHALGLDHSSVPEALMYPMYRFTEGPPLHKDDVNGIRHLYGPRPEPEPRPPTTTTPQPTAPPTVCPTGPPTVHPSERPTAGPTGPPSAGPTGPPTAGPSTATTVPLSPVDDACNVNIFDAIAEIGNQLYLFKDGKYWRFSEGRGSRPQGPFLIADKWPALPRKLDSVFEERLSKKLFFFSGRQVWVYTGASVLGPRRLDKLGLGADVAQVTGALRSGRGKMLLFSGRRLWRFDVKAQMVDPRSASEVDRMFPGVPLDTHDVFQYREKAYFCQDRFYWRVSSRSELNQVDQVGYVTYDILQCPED
Description: as §1, §2, §3, §4

| SMILES | IC50 (MMP-1) [nM] | IC50 (MMP-13) [nM] | IC50 [1] [nM] | IC50 (MMP-9) [nM] | inhibition at 1 µM (MMP-1; 1 μM, read-out: MMP-1 % (inhibition) at single concentration) [%] |
| --- | --- | --- | --- | --- | --- |
| CC=C=CCOc1ccc(S(=O)(=O)N(C)C(C(=O)NO)C(C)C)cc1 (centres unmarked) [Example 22, N-Hydroxy-3-methyl-2-(methyl{[4-(2,3-pentadienyloxy)phenyl]sulfonyl}amino)butanamide] | 877 | 6 | 48 | 4 | – |
| C=C=CCOc1ccc(S(=O)(=O)N(C)C(C(=O)NO)C(C)C)cc1 (centres unmarked) [Example 16, 2-[{[4-(2,3-Butadienyloxy)phenyl]sulfonyl}(methyl)amino]-N-hydroxy-3-methylbutanamide] | – | 3 | 36 | – | – |
| C=C=CCOc1ccc(S(=O)(=O)N2Cc3ccccc3N(C(C)=O)CC2C(=O)NO)cc1 (centres unmarked) [Example 45, 1-Acetyl-4-{[4-(2,3-butadienyloxy)phenyl]sulfonyl}-N-hydroxy-2,3,4,5-tetrahydro-1H-1,4-benzodiazepine-3-carboxamide] | 2350 | 7 | 71 | 9 | – |
| C=C=CCOc1ccc(S(=O)(=O)NC(C(=O)NO)C(C)C)cc1 (centres unmarked) [Example 13, 2-({[4-(2,3-Butadienyloxy)phenyl]sulfonyl}amino)-N-hydroxy-3-methylbutanamide] | 2670 | 21 | 51 | 36 | – |
| CC=C=CCOc1ccc(S(=O)(=O)NC(C(=O)NO)C(C)C)cc1 (centres unmarked) [Example 19, N-Hydroxy-3-methyl-2-({[4-(2,3-pentadienyloxy)phenyl]sulfonyl}amino)butanamide] | 8810 | 25 | 62 | 21 | – |
| C=C=CCOc1ccc(S(=O)(=O)N2CCSC(C)(C)[C@@H]2C(=O)NO)cc1 [Example 26, (3S)-4-{[4-(2,3-Butadienyloxy)phenyl]sulfonyl}-N-hydroxy-2,2-dimethyl-3-thiomorpholinecarboxamide] | 50 | 4 | 116 | – | – |
| C=C=CCOc1ccc(S(=O)(=O)N2Cc3ccccc3N(C(=O)c3ccccc3)CC2C(=O)NO)cc1 (centres unmarked) [Example 46, 1-Benzoyl-4-(4-buta-2,3-dienyloxy-benzenesulfonyl)-2,3,4,5-tetrahydro-1H-benzo[e][1,4]diazepine-3-carboxylic acid hydroxyamide] | 675 | 4 | – | – | – |
| CC=C=CCOc1ccc(S(=O)(=O)N2Cc3ccccc3N(C(=O)c3ccccc3)CC2C(=O)NO)cc1 (centres unmarked) [Example 47, 1-Benzoyl-N-hydroxy-4-{[4-(2,3-pentadienyloxy)phenyl]sulfonyl}-2,3,4,5-tetrahydro-1H-1,4-benzodiazepine-3-carboxamide] | – | 5 | 1400 | – | 32 |
